Assay results: PubChem BioAssay AID212 (DTP/NCI, 2004)
“And” between values parts separate entries of the source, which are not always exact repeats. Equal values may be shown once. Inconclusive results are not listed. *1 amine or outer side, *2 acyl side, *3 side chain or, on linkers, in order; H or OH if unused. Where a SMILES comes first, the peptide text is derived from it. Bridges are numbered along the chain shown (N, C = ends). Roman numbers before positions name the chains, in order. [ ]: non-standard residue; d: D form. Actinocin(9to1) = Cc1c2oc3c(C)ccc(C(=O)[*:1])c3nc-2c(C(=O)[*:2])c(N)c1=O; aThr = C[C@H](O)[C@H](N)C(=O)O; NMeV = CN[C@H](C(=O)O)C(C)C; Sar = CNCC(=O)O

System: BDF1 mice, colon carcinoma 38 sc, T/C %
Assay: NCI In Vivo Anticancer Drug Screen. Data for tumor model Colon Carcinoma 38 (subcutaneous) in B6D2F1 (BDF1) mice
Settings: endpoint: median tumor weight (est.), higher = larger tumour
How it was run: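 Ratio of survival or tumor size, compound-treated animals relative to vehicle controls, in tumor-bearing mice.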

[1] = dose: 12.5 mg/kg/injection, schedule: Q07DX002 (ip), vehicle: Klucel (hydroxypropylcellulose) (HPC)
[2] = dose: 25.0 mg/kg/injection, schedule: Q07DX002 (ip), vehicle: Klucel (hydroxypropylcellulose) (HPC)
[3] = dose: 100.0 mg/kg/injection, schedule: Q07DX002 (ip), vehicle: Klucel (hydroxypropylcellulose) (HPC)
[4] = dose: 200.0 mg/kg/injection, schedule: Q07DX002 (ip), vehicle: Klucel (hydroxypropylcellulose) (HPC)
[5] = dose: 50.0 mg/kg/injection, schedule: Q07DX002 (ip), vehicle: saline with Tween-80

## NC(=O)CC(N)C(=O)O (centres undefined)
dose: 50.0 mg/kg/injection, schedule: Q07DX002 (ip), vehicle: other
  T/C: 72 % of control
dose: 100.0 mg/kg/injection, schedule: Q07DX002 (ip), vehicle: other
  T/C: 85 % of control
dose: 200.0 mg/kg/injection, schedule: Q07DX002 (ip), vehicle: other
  T/C: 79 % of control
dose: 400.0 mg/kg/injection, schedule: Q07DX002 (ip), vehicle: other
  T/C: 91 % of control
dose: 800.0 mg/kg/injection, schedule: Q07DX002 (ip), vehicle: other
  T/C: 118 % of control
dose: 1600.0 mg/kg/injection, schedule: Q07DX002 (ip), vehicle: other
  T/C: 88 % of control

## C=CCNc1ccc(C)cc1
[1]
  T/C: 72 % of control
[2]
  T/C: 92 % of control
dose: 50.0 mg/kg/injection, schedule: Q07DX002 (ip), vehicle: Klucel (hydroxypropylcellulose) (HPC)
  T/C: 66 % of control
[3]
  T/C: 86 % of control
[4]
  T/C: 78 % of control

## Cc1cnc(/C=N\NC(N)=S)c2cccc(N)c12
dose: 6.25 mg/kg/injection, schedule: Q07DX002 (ip), vehicle: saline with Tween-80
  T/C: 110 % of control
dose: 6.25 mg/kg/injection, schedule: Q07DX003 (ip), vehicle: saline with Tween-80
  T/C: 88 % of control
dose: 12.5 mg/kg/injection, schedule: Q07DX002 (ip), vehicle: saline with Tween-80
  T/C: 69 % of control
dose: 12.5 mg/kg/injection, schedule: Q07DX003 (ip), vehicle: saline with Tween-80
  T/C: 111 % of control
dose: 25.0 mg/kg/injection, schedule: Q07DX003 (ip), vehicle: saline with Tween-80
  T/C: 122 % of control
[5]
  T/C: 36 % of control and 57 % of control
dose: 50.0 mg/kg/injection, schedule: Q07DX003 (ip), vehicle: saline with Tween-80
  T/C: 45 % of control

## COC1=C2C[C@@H](C)C[C@@H](OC)[C@@H](O)[C@H](C)/C=C(\C)[C@@H](OC(N)=O)[C@H](OC)/C=C\C=C(/C)C(=O)NC(=CC1=O)C2=O
dose: 0.25 mg/kg/injection, schedule: Q07DX002 (ip), vehicle: saline with Tween-80
  T/C: 92 % of control and 100 % of control
dose: 0.5 mg/kg/injection, schedule: Q07DX002 (ip), vehicle: saline with Tween-80
  T/C: 86 % of control
dose: 1.0 mg/kg/injection, schedule: Q07DX002 (ip), vehicle: saline with Tween-80
  T/C: 108 % of control
dose: 2.0 mg/kg/injection, schedule: Q07DX002 (ip), vehicle: saline with Tween-80
  T/C: 94 % of control
dose: 4.0 mg/kg/injection, schedule: Q07DX002 (ip), vehicle: saline with Tween-80
  T/C: 98 % of control
dose: 8.0 mg/kg/injection, schedule: Q07DX002 (ip), vehicle: saline with Tween-80
  T/C: 92 % of control and 94 % of control

## Nc1ccc(Cn2ccc3c4c(N)nc(N)nc4ccc32)cc1
dose: 1.25 mg/kg/injection, schedule: Q07DX002 (ip), vehicle: saline with Tween-80
  T/C: 90 % of control
dose: 2.5 mg/kg/injection, schedule: Q07DX002 (ip), vehicle: saline with Tween-80
  T/C: 93 % of control and 106 % of control
dose: 40.0 mg/kg/injection, schedule: Q07DX002 (ip), vehicle: saline with Tween-80
  T/C: 59 % of control

## Cc1c2oc3c(C)ccc(C(=O)N[C@@H]4C(=O)N[C@H](C(C)C)C(=O)N5CCC[C@H]5C(=O)N(C)CC(=O)N(C)[C@@H](C(C)C)C(=O)O[C@H]4C)c3nc-2c(C(=O)N[C@@H]2C(=O)N[C@H](C(C)C)C(=O)N3CCC[C@H]3C(=O)N(C)CC(=O)N(C)[C@@H](C(C)C)C(=O)O[C@H]2C)c(N)c1=O (I: [aThr][dV]P[Sar][NMeV] / II: [aThr][dV]P[Sar][NMeV]; ester I:1-I:C, II:1-II:C; linker I:N-II:N via Actinocin(9to1))
dose: 100.0 micrograms/kg/injection, schedule: Q07DX002 (ip), vehicle: saline + alcohol
  T/C: 104 % of control
dose: 200.0 micrograms/kg/injection, schedule: Q07DX002 (ip), vehicle: saline + alcohol
  T/C: 77 % of control
dose: 400.0 micrograms/kg/injection, schedule: Q07DX002 (ip), vehicle: saline + alcohol
  T/C: 19 % of control

## CCCCCCC(=O)/C=C/c1cccc(OCOCC)c1
[5]
  T/C: 122 % of control
dose: 100.0 mg/kg/injection, schedule: Q07DX002 (ip), vehicle: saline with Tween-80
  T/C: 103 % of control
dose: 200.0 mg/kg/injection, schedule: Q07DX002 (ip), vehicle: saline with Tween-80
  T/C: 104 % of control
dose: 400.0 mg/kg/injection, schedule: Q07DX002 (ip), vehicle: saline with Tween-80
  T/C: 89 % of control

## Ic1ncnc2c1ncn2C1CCCO1 (centres undefined)
[1]
  T/C: 68 % of control and 70 % of control
[2]
  T/C: 52 % of control and 68 % of control
[3]
  T/C: 56 % of control and 80 % of control
[4]
  T/C: 81 % of control
dose: 400.0 mg/kg/injection, schedule: Q07DX002 (ip), vehicle: Klucel (hydroxypropylcellulose) (HPC)
  T/C: 55 % of control
